Laboratory results from patent US6322962A, “Sterol-regulated Site-1 protease and assays of modulators thereof” (Board of Regents, The University of Texas System, priority 1999, dated 2001).
One block for each molecule: values may come before it. Square brackets hold non-standard residues; d marks the D form. Peptide text beside a SMILES is read from it. * marks the point of attachment. AMC = Cc1cc(=O)oc2cc(N*)ccc12; Nle = CCCC[C@H](N)C(=O)O

Columns and labels:
purified S1P(983)-C [1] = biological target: T1, purified S1P(983)-C (Cricetulus griseus, UniProt Q9Z2A8, T875N); assay: Fluorogenic peptide assay for S1P activity (cleavage of MCA-conjugated peptides); type: biochemical, hamster; settings: for Relative Activity: Ac-VFRSLK-MCA set at 1.0; for cleavage of the peptide: result in words
T1 construct: Truncated S1P (amino acids 1-983); GGR linker (NotI site); made in house; host or cells: SRD-12B cells (mutant CHO cells lacking S1P) stably transfected with pCMV-S1P(983)-Myc-His (TR-3117, 'S1P(983) cells'); secreted into the medium and purified on Ni-NTA
T1 sequence (Q9Z2A8 187-983 T875N): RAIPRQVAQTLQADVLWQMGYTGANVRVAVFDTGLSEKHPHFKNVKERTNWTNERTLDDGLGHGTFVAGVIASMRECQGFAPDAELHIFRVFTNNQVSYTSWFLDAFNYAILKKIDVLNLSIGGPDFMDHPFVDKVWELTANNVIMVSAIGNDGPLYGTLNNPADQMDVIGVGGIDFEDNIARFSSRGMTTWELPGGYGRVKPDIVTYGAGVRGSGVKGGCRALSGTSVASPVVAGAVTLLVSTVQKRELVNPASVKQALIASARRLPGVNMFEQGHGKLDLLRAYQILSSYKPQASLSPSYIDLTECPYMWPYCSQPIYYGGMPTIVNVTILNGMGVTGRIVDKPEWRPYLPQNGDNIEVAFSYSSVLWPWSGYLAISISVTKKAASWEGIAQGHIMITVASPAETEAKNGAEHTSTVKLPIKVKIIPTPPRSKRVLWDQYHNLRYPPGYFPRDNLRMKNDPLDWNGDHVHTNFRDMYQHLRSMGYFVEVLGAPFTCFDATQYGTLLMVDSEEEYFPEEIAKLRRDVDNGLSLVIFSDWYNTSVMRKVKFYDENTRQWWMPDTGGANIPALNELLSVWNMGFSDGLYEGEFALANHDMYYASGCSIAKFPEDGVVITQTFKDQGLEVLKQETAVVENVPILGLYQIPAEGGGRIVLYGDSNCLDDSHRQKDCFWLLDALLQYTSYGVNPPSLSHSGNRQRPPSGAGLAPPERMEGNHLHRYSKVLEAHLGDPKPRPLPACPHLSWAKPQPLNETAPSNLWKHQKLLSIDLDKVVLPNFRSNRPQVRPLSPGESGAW
Description: (§1) Fluorogenic Peptide Assay for S1P Activity
S1P activity was measured fluorometrically with MCA-conjugated peptidyl substrates. Each reaction was carried out in 0.2 ml of assay buffer (25 mM Tris, 25 mM Mes, 25 mM acetic acid, and 1 mM CaCl2 adjusted to pH 8.0 with concentrated NaOH). Reactions contained MCA-peptide (final concentration 100 μM, added in 2 μl DMSO) and […] of purified S1P(983)-C. After incubation for 0.5-5 h at 37° C., each reaction was terminated by addition of 1 ml of ice-cold 5 mM sodium EDTA. The liberated 7-amino-4-methyl-coumarin (AMC) was measured with a Perkin-ElmerLS-30 luminescence spectrometer (360 nm excitation, 460 nm emission). A standard curve of fluorescence intensity was generated with different concentrations of AMC (Promega).
Similar substrates have been used to assay furin, prohormone convertases, and other subtilisin-related enzymes (Nakayama, 1997). […] The sequence of this peptide corresponds to the sequence at Site-B of S1P, which is known to be cleaved by S1P in an autocatalytic reaction. Fluorescence rose linearly with time for 5 h. […] This differs from the observations with furin and the prohormone convertases, whose pH optima are generally in the range of 6-7 (Nakayama, 1997).
The indicated fluorogenic peptide-MCA (100 μM) was incubated with 3 μg of purified S1P(983)-C at 37° C. for 5 h. The S1P activity of Ac-VFRSLK-MCA (SEQ ID NO:13, 930 pmol per min/mg protein) was set at 1.0, and the activity of the other substrates was expressed relative to this value. Each value represents the average of duplicate incubations, which varied from each other by <10%.

purified S1P(983)-C [2] = biological target: T1, purified S1P(983)-C; assay: Effect of protease inhibitors on S1P(983)-C mediated cleavage of Ac-VFRSLK-MCA; type: biochemical, hamster; settings: for inhibition of S1P(983)-C: result in words
Description: as §1
S1P activity was measured fluorometrically with MCA-conjugated peptidyl substrates. […] After incubation for 0.5-5 h at 37° C., each reaction was terminated by addition of 1 ml of ice-cold 5 mM sodium EDTA. The liberated 7-amino-4-methyl-coumarin (AMC) was measured with a Perkin-ElmerLS-30 luminescence spectrometer (360 nm excitation, 460 nm emission). A standard curve of fluorescence intensity was generated with different concentrations of AMC (Promega).

[3] = 100 μM peptide-MCA, 3 μg S1P(983)-C, 37° C., 5 h
[4] = 0.1 mM, 100 μM Ac-VFRSLK-MCA, 37° C., 5 h
[5] = 1 mM, 100 μM Ac-VFRSLK-MCA, 37° C., 5 h
[6] = 10 mM, 100 μM Ac-VFRSLK-MCA, 37° C., 5 h
[7] = pH 8, 0.1 mM, 100 μM Ac-VFRSLK-MCA, 37° C., 5 h, read-out: AMC Liberated, % control
[8] = pH 8, 10 mM, 100 μM Ac-VFRSLK-MCA, 37° C., 5 h, read-out: AMC Liberated, % control

Relative Activity (purified S1P(983)-C [1]; [3]): < 0.1
Compound: CC(=O)N[C@@H](CO)C(=O)NCC(=O)N[C@@H](CO)C(=O)NCC(=O)N[C@@H](CCCNC(=N)N)C(=O)N[C@@H](CO)C(=O)N[C@H](C(=O)N[C@@H](CC(C)C)C(=O)Nc1ccc2c(C)cc(=O)oc2c1)C(C)C (Ac-SGSGRSVL-{AMC})

AMC Liberated (purified S1P(983)-C [2]; [4]): 615 pmol/tube
AMC Liberated (purified S1P(983)-C [2]; [5]): 323 pmol/tube
AMC Liberated (purified S1P(983)-C [2]; [6]): 99 pmol/tube
remaining activity at 100 µM (purified S1P(983)-C [2]; [7]): 73%
remaining activity at 1000 µM (purified S1P(983)-C [2]; pH 8, 1 mM, 100 μM Ac-VFRSLK-MCA, 37° C., 5 h, read-out: AMC Liberated, % control): 38%
remaining activity at 10000 µM (purified S1P(983)-C [2]; [8]): 12%
Compound: O[C@H](CS)[C@H](O)CS (racemic) [Dithiothreitol]

AMC Liberated (purified S1P(983)-C [2]; 3 mM, 100 μM Ac-VFRSLK-MCA, 37° C., 5 h): 361 pmol/tube
AMC Liberated (purified S1P(983)-C [2]; [6]): 253 pmol/tube
remaining activity at 3000 µM (purified S1P(983)-C [2]; pH 8, 3 mM, 100 μM Ac-VFRSLK-MCA, 37° C., 5 h, read-out: AMC Liberated, % control): 43%
remaining activity at 10000 µM (purified S1P(983)-C [2]; [8]): 30%
inhibition of S1P(983)-C (purified S1P(983)-C [2]): partially inhibited
Compound: c1cnc2c(c1)ccc1cccnc12 [1,10-Phenanthroline, 1,10-phenanthroline]

Compound: CCCC[C@@H](C=O)NC(=O)[C@H](CC(C)C)NC(=O)[C@H](CC(C)C)NC(C)=O [ALLN, N-acetyl-leucinal-leucinal-norleucinal] (Ac-Leu-Leu-[Nle]-aldehyde)
AMC Liberated (purified S1P(983)-C [2]; [4]): 811 pmol/tube
remaining activity at 100 µM (purified S1P(983)-C [2]; [7]): 97%
inhibition of S1P(983)-C (purified S1P(983)-C [2]): resistant

Compound: N=C(N)c1ccc(CS(=O)(=O)F)cc1 [APMSF, (4-amidinophenyl)-methancsulfonyl fluoride]
AMC Liberated (purified S1P(983)-C [2]; [5]): 793 pmol/tube
AMC Liberated, % control (purified S1P(983)-C [2]; [5]): 95 % control
inhibition of S1P(983)-C (purified S1P(983)-C [2]): resisted

Relative Activity (purified S1P(983)-C [1]; [3]): 0.47
cleavage of the peptide (purified S1P(983)-C [1]): cleaves
Compound: CC(=O)N[C@@H](CCCNC(=N)N)C(=O)N[C@@H](CO)C(=O)N[C@@H](CC(C)C)C(=O)N[C@@H](CCCCN)C(=O)Nc1ccc2c(C)cc(=O)oc2c1 [Ac-RSLK-MCA, Ac-Arg-Ser-Leu-Lys-MCA] (Ac-RSLK-{AMC})

Relative Activity (purified S1P(983)-C [1]; [3]): < 0.1
cleavage of the peptide (purified S1P(983)-C [1]): did not cleave
Compound: CC(=O)N[C@@H](CO)C(=O)NCC(=O)N[C@@H](CCCNC(=N)N)C(=O)N[C@@H](CO)C(=O)N[C@H](C(=O)N[C@@H](CC(C)C)C(=O)Nc1ccc2c(C)cc(=O)oc2c1)C(C)C [Ac-SGRSVL-MCA, Ac-Ser-Gly-Arg-Ser-Val-Leu-MCA] (Ac-SGRSVL-{AMC})

Relative Activity (purified S1P(983)-C [1]; [3]): < 0.1
cleavage of the peptide (purified S1P(983)-C [1]): no detectable cleavage
Compound: CC(=O)N[C@H](C(=O)N[C@@H](Cc1ccccc1)C(=O)N[C@@H](C)C(=O)N[C@@H](CO)C(=O)N[C@@H](CC(C)C)C(=O)N[C@@H](CCCCN)C(=O)Nc1ccc2c(C)cc(=O)oc2c1)C(C)C [Ac-VFASLK-MCA, Ac-Val-Phe-Ala-Ser-Leu-Lys-MCA] (Ac-VFASLK-{AMC})

S1P activity (purified S1P(983)-C [1]; [3]): 930 pmol per min/mg protein
Relative Activity (purified S1P(983)-C [1]; [3]): 1.0
cleavage at pH 6 (purified S1P(983)-C [1]; pH 6): very little cleavage
pH of maximal rate of cleavage (purified S1P(983)-C [1]; pH curve, FIG. 22C): 8 pH
time over which fluorescence rose linearly (purified S1P(983)-C [1]; purified secreted S1P(983)-C, 37° C.): 5 h
Compound: CC(=O)N[C@H](C(=O)N[C@@H](Cc1ccccc1)C(=O)N[C@@H](CCCNC(=N)N)C(=O)N[C@@H](CO)C(=O)N[C@@H](CC(C)C)C(=O)N[C@@H](CCCCN)C(=O)Nc1ccc2c(C)cc(=O)oc2c1)C(C)C [Ac-VFRSLK-MCA, Ac-Val-Phe-Arg-Ser-Leu-Lys-MCA] (Ac-VFRSLK-{AMC})
